Source: patent publication US7041687B2, “Indazole compounds useful as protein kinase inhibitors” (Vertex Pharmaceuticals Incorporated, priority 2002, dated 2006)
pKi: −log10 of the molar value.

Experiments:
Assay type in all cases: biochemical
PDK-1 = target: T1, PDK-1 (Homo sapiens, UniProt O15530); assay: PDK-1 inhibition assay (radioactive-phosphate incorporation); details: 40 μM ATP, 65 μM PDKtide, 25 nM PDK-1, 30° C.
T1 sequence (O15530 1-556): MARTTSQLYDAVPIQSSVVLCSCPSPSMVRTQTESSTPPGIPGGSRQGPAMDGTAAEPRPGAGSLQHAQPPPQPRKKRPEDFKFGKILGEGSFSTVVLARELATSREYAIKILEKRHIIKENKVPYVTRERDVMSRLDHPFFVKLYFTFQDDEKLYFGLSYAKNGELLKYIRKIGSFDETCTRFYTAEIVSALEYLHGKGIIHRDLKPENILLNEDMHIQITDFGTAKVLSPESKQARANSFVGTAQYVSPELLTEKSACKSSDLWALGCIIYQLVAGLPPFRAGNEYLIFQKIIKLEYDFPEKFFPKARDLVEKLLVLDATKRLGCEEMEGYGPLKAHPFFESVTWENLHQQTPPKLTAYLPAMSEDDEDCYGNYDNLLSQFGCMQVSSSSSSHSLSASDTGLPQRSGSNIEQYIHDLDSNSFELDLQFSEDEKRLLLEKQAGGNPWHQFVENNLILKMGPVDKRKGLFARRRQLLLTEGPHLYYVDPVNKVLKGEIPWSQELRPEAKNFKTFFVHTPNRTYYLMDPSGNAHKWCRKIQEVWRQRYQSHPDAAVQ

PKA = PKA (Homo sapiens, UniProt P17612); assay: PKA inhibition assay (standard coupled enzyme assay); details: 50 μM ATP, 80 μM Kemptide, 18 nM PKA, 30° C.
Description: Compounds were screened for their ability to inhibit PKA using a standard coupled enzyme assay (Fox et al., Protein Sci., (1998) 7, 2249). Assays were carried out in a mixture of 100 mM HEPES 7.5, 10 mM MgCl2, 25 mM NaCl, 1 mM DTT and 3% DMSO. Final substrate concentrations in the assay were 50 μM ATP (Sigma Chemicals) and 80 μM peptide (Kemptide, American Peptide, Sunnyvale, Calif.). Assays were carried out at 30° C. and 18 nM PKA. Final concentrations of the components of the coupled enzyme system were 2.5 mM phosphoenolpyruvate, 300 μM NADH, 30 μg/ml pyruvate kinase and 10 μg/ml lactate dehydrogenase.
An assay stock buffer solution was prepared containing all of the reagents listed above, with the exception of ATP, and the test compound of interest. 55 μl of the stock solution was placed in a 96 well plate followed by addition of 2 μl of DMSO stock containing serial dilutions of the test compound (typically starting from a final concentration of 5 μM). The plate was preincubated for 10 minutes at 30° C. and the reaction initiated by addition of 5 μl of ATP (final concentration 50 μM). Initial reaction rates were determined with a Molecular Devices SpectraMax Plus plate reader over a 15 minute time course. IC50 and Ki data were calculated from non-linear regression analysis using the Prism software package (GraphPad Prism version 3.0a for Macintosh, GraphPad Software, San Diego Calif., USA).

AKT-3 = AKT-3 (Homo sapiens, UniProt Q9Y243); assay: AKT-3 inhibition assay (standard coupled enzyme assay); details: 170 μM ATP, 200 μM peptide, 45 nM AKT, 30° C.
AKT-3, sequence (Q9Y243 whole entry): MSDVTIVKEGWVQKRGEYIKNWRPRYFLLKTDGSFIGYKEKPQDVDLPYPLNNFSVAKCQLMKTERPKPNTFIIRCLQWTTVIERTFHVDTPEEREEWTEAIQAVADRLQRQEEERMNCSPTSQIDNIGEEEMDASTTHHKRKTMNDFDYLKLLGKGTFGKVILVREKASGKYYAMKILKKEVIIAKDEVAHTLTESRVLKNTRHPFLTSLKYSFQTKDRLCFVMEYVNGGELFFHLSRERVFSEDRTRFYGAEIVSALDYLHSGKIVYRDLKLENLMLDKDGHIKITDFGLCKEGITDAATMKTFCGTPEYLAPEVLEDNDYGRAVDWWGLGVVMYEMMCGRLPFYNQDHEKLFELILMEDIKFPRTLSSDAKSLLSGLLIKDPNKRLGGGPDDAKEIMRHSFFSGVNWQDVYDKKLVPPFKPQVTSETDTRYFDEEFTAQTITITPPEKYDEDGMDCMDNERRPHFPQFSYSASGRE
Description: Assays were carried out in a mixture of 100 mM HEPES 7.5, 10 mM MgCl2, 25 mM NaCl, 1 mM DTT and 3% DMSO. Final substrate concentrations in the assay were 170 μM ATP (Sigma Chemicals) and 200 μM peptide (RPRAATF, American Peptide, Sunnyvale, Calif.). Assays were carried out at 30° C. and 45 nM AKT. Final concentrations of the components of the coupled enzyme system were 2.5 mM phosphoenolpyruvate, 300 μM NADH, 30 μg/ML pyruvate kinase and 10 μg/ml lactate dehydrogenase.
An assay stock buffer solution was prepared containing all of the reagents listed above, with the exception of AKT, DTT, and the test compound of interest. 55 μl of the stock solution was placed in a 96 well plate followed by addition of 2 μl of 1 mM DMSO stock containing the test compound (final compound concentration 30 μM). The plate was pre-incubated for about 10 minutes at 30° C. and the reaction initiated by addition of 10 μl of enzyme (final concentration 45 nM) and 1 mM DTF. Rates of reaction were obtained using a Molecular Devices SpectraMax Plus plate reader over a 15 minute read time at 30° C.

Structure (SMILES)	pKi (PDK-1)	pKi (PKA)	pKi (AKT-3)
NCCC(C(=O)Nc1ccc2[nH]nc(-c3cccc(F)c3)c2c1)c1ccccc1 (centres unmarked) [Compound I-240]	> 6.00	> 6.00	
N#Cc1cccc(Nc2n[nH]c3ccc(NC(=O)C(CN)c4ccc(Cl)c(Cl)c4)cc23)c1 (centres unmarked) [Compound I-232]	< 5.52	> 6.00	> 6.00
NCCC(C(=O)Nc1ccc2[nH]ncc2c1)c1ccccc1 (centres unmarked) [Compound I-98]	5.52 to 6.00	> 6.00	> 6.00
NCCC(C(=O)Nc1ccc2[nH]nc(NC(=O)c3ccc(CN)cc3)c2c1)c1ccc(Cl)c(Cl)c1 (centres unmarked) [Compound I-198]	> 6.00	> 6.00	> 6.00
NCCC(C(=O)Nc1ccc2[nH]nc(NC(=O)c3cc(C(F)(F)F)cc(C(F)(F)F)c3)c2c1)c1ccc(Cl)c(Cl)c1 (centres unmarked) [Compound I-202]	< 5.52	5.30 to 6.00	> 6.00
CCc1cccc(C(CCN)C(=O)Nc2ccc3[nH]nc(C)c3c2)c1 (centres unmarked) [Compound I-135]	< 5.52	> 6.00	> 6.00
NCCC(C(=O)Nc1ccc2[nH]ncc2c1)c1cc(C(F)(F)F)cc(C(F)(F)F)c1 (centres unmarked) [Compound I-105]	< 5.52	> 6.00	> 6.00
NCCC(C(=O)Nc1ccc2[nH]nc(NC(=O)c3cccc(Oc4ccccc4)c3)c2c1)c1ccc(Cl)c(Cl)c1 (centres unmarked) [Compound I-178]	< 5.52	> 6.00	> 6.00
COc1c(C(CCN)C(=O)Nc2ccc3[nH]nc(C)c3c2)ccc(Cl)c1Cl (centres unmarked) [Compound I-130]	> 6.00	> 6.00	> 6.00
NCCC(C(=O)Nc1ccc2[nH]nc(-c3ccc(C(=O)O)cc3)c2c1)c1ccccc1 (centres unmarked) [Compound I-237]	> 6.00	> 6.00	
CN(C)CCC(C(=O)Nc1ccc2[nH]ncc2c1)c1ccc(Cl)c(Cl)c1 (centres unmarked) [Compound I-226]	< 5.52	> 6.00	> 6.00
NCCC(C(=O)Nc1ccc2[nH]nc(NC(=O)c3ccc(Oc4ccccc4)cc3)c2c1)c1ccc(Cl)c(Cl)c1 (centres unmarked) [Compound I-199]	5.52 to 6.00	> 6.00	> 6.00
NCCC(C(=O)Nc1ccc2[nH]nc(Br)c2c1)c1ccc(Cl)c(Cl)c1 (centres unmarked) [Compound I-122]	5.52 to 6.00	> 6.00	> 6.00
NCCC(C(=O)Nc1ccc2[nH]nc(NC(=O)c3ccccn3)c2c1)c1ccc(Cl)c(Cl)c1 (centres unmarked) [Compound I-195]	> 6.00	> 6.00	> 6.00
COc1cccc(C(=O)Nc2n[nH]c3ccc(NC(=O)C(CCN)c4ccc(Cl)c(Cl)c4)cc23)c1 (centres unmarked) [Compound I-167]	> 6.00	> 6.00	> 6.00
NCCC(C(=O)Nc1ccc2[nH]nc(NC(=O)c3cccc(CN)c3)c2c1)c1ccc(Cl)c(Cl)c1 (centres unmarked) [Compound I-197]	> 6.00	> 6.00	> 6.00
NCCNC(C(=O)Nc1ccc2[nH]ncc2c1)c1cccc(Cl)c1 (centres unmarked) [Compound I-59, 2-(2-Amino-ethylamino)-2-(3-chloro-phenyl)-N-(1H-indazol-5-yl)-acetamide]		> 6.00	> 6.00
Cc1n[nH]c2ccc(NC(=O)C(CCN)c3ccccc3F)cc12 (centres unmarked) [Compound I-1026]	> 6.00	> 6.00	
NCC[C@H](C(=O)Nc1ccc2[nH]nc(-c3ccc(C(=O)O)cc3)c2c1)c1ccccc1 [Compound I-263]	> 6.00	> 6.00	
NC(C(=O)Nc1ccc2[nH]ncc2c1)c1cccc(Br)c1 (centres unmarked) [Compound I-52]		> 6.00	4.70 to 5.00
O=C(Nc1ccc2[nH]nc(Cl)c2c1)[C@H](O)c1cccc(Cl)c1 [Compound I-78]		> 6.00	5.00 to 6.00
Cc1n[nH]c2ccc(NC(=O)[C@@H](CCN)c3ccccc3)cc12 [Compound I-1033]	< 5.52	> 6.00	
NCCC(C(=O)Nc1ccc2[nH]nc(-c3cccc(CN)c3)c2c1)c1ccccc1 (centres unmarked) [Compound I-260]	> 6.00	> 6.00	
NC[C@H](C(=O)Nc1ccc2[nH]ncc2c1)c1ccc(Cl)c(Cl)c1 [Compound I-243]		> 6.00	> 6.00
NCCC(C(=O)Nc1ccc2[nH]nc(-c3cccc(C(F)(F)F)c3)c2c1)c1ccccc1 (centres unmarked) [Compound I-230]	> 6.00	> 6.00	
O=C(Cc1cccc(C(F)(F)F)c1)Nc1ccc2[nH]ncc2c1 [Compound I-2]		> 6.00	4.70 to 5.00

Structure (SMILES)	pKi (PDK-1)	pKi (PKA)	pKi (AKT-3)
O=C(Nc1ccc2[nH]ncc2c1)C(O)c1ccc(Cl)cc1 (centres unmarked) [Compound I-35]		> 6.00	5.00 to 6.00
Cc1n[nH]c2ccc(NC(=O)C(CCN)c3cccc(Cl)c3F)cc12 (centres unmarked) [Compound I-116]		> 6.00	> 6.00
NCCC(C(=O)Nc1ccc2[nH]nc(-c3cccc(F)c3)c2c1)c1ccc(Cl)c(Cl)c1 (centres unmarked) [Compound I-252]		> 6.00	> 6.00
NCCC(C(=O)Nc1ccc2[nH]ncc2c1)c1ccc(F)c(C(F)(F)F)c1 (centres unmarked) [Compound I-103]		> 6.00	> 6.00
NCCC(C(=O)Nc1ccc2[nH]nc(NC(=O)c3cccc([N+](=O)[O-])c3)c2c1)c1ccc(Cl)c(Cl)c1 (centres unmarked) [Compound I-208]		> 6.00	> 6.00
Cc1n[nH]c2ccc(NC(=O)[C@H](O)c3cccc(Cl)c3)cc12 [Compound I-76]		> 6.00	5.00 to 6.00
C#Cc1cccc(C(=O)Nc2n[nH]c3ccc(NC(=O)C(CCN)c4ccc(Cl)c(Cl)c4)cc23)c1 (centres unmarked) [Compound I-205]		> 6.00	> 6.00
O=C(Nc1ccc2[nH]ncc2c1)C(O)c1cc(F)cc(F)c1 (centres unmarked) [Compound I-43]		> 6.00	5.00 to 6.00
NC(C(=O)Nc1ccc2[nH]ncc2c1)c1c[nH]c2ccccc12 (centres unmarked) [Compound I-56]		> 6.00	5.00 to 6.00
NCCC(C(=O)Nc1cc(Br)c2[nH]ncc2c1)c1ccc(Cl)c(Cl)c1 (centres unmarked) [Compound I-144]		> 6.00	> 6.00
N[C@@H](C(=O)Nc1ccc2[nH]ncc2c1)c1ccccc1 [Compound I-48]		> 6.00	5.00 to 6.00
NCCC(C(=O)Nc1ccc2[nH]ncc2c1)c1cccc(C(F)(F)F)c1 (centres unmarked) [Compound I-104]		> 6.00	> 6.00
Cc1n[nH]c2ccc(NC(=O)[C@H](O)c3ccc(F)c(Cl)c3)cc12 [Compound I-77]		> 6.00	5.00 to 6.00
NCCC(C(=O)Nc1cc(Cl)c2[nH]ncc2c1)c1ccc(Cl)c(Cl)c1 (centres unmarked) [Compound I-143]		> 6.00	> 6.00
NCCNC(C(=O)Nc1ccc2[nH]ncc2c1)c1ccc2ccccc2c1 (centres unmarked) [Compound I-73]		> 6.00	> 6.00
O=C(Nc1ccc2[nH]ncc2c1)[C@H](O)c1cccc(Cl)c1 [Compound I-40]		> 6.00	5.00 to 6.00
NCC(C(=O)Nc1ccc2[nH]ncc2c1)c1cccc(Cl)c1 (centres unmarked) [Compound I-97]		> 6.00	> 6.00
CCNc1cccc(C(=O)Nc2n[nH]c3ccc(NC(=O)C(CCN)c4ccc(Cl)c(Cl)c4)cc23)c1 (centres unmarked) [Compound I-210]		> 6.00	> 6.00
Cc1n[nH]c2ccc(NC(=O)[C@H](CCN)c3ccccc3)cc12 [Compound I-1034]	> 6.00	> 6.00	
NCCC(C(=O)Nc1ccc2[nH]ncc2c1)c1cc(C(F)(F)F)cc(Cl)n1 (centres unmarked) [Compound I-149]		> 6.00	> 6.00
Cc1ccc(-c2n[nH]c3ccc(NC(=O)C(CCN)c4ccccc4)cc23)cc1 (centres unmarked) [Compound I-249]	> 6.00	> 6.00	
NCCC(C(=O)Nc1ccc2[nH]nc(-c3ccc(-c4nn[nH]n4)cc3)c2c1)c1ccccc1 (centres unmarked) [Compound I-261]	> 6.00	> 6.00	
CNc1cccc(C(=O)Nc2n[nH]c3ccc(NC(=O)C(CCN)c4ccc(Cl)c(Cl)c4)cc23)c1 (centres unmarked) [Compound I-209]		> 6.00	> 6.00
Cc1n[nH]c2ccc(NC(=O)C(CN)c3ccc(Cl)s3)cc12 (centres unmarked) [Compound I-245]		> 6.00	> 6.00
CNCCCNC(C(=O)Nc1ccc2[nH]ncc2c1)c1cccc(Cl)c1 (centres unmarked) [Compound I-67]		> 6.00	> 6.00
